For data set [1], the target named is T1, P-gp (MDR1) (Homo sapiens, UniProt P08183).
T1 construct: host or cells: MDCKII (canine kidney) cells transfected with human MDR1
The data set is described as follows: MDR1-MDCKII assay (bidirectional transport). The format is in vitro ADME. Conditions: MDCK-MDR1, pH 7.4, test compound 0.5 μM, MDR1-MDCKII monolayer; for efflux ratio at 0.5 μM: read-out: ER (efflux ratio); for Papp A→B at 0.5 μM: apical to basolateral. How it is done:
Bidirectional transport in MDCKII cells transfected with human MDR1 were assessed according to previously published methodology (Langthaler, K. et al. (2024). Fluids Barriers CNS, 21 (11): 1-15). In brief, cells obtained from the Netherlands Cancer Institute were maintained at 37° C. in α-MEM containing 10% FBS, 100 μg/mL penicillin-G, 100 μg/mL streptomycin, 1% non-essential amino acid under culture conditions of 5% CO2 and 95% relative humidity. Transport of test compound (0.5 μM, 0.4% DMSO final concentrations) across the cell monolayer was determined in triplicate on a single test occasion along with controls for low and high permeability (fenoterol and metoprolol, 2 μM) and P-gp efflux (digoxin, 10 μM). Each compound was loaded onto either the apical side (75 μL) or basolateral side (275 μL) with transport buffer (1% BSA in HBSS with 10 mM HEPES (pH 7.4)) on the opposing side of the cells (e.g. 50 μL or 250 μL on the apical or basolateral side). A sample (25 μL) from the donor compartment was taken 30 s after test compound is loaded onto the plate, resulting in a final incubation volume of 50 μL and 250 μL on apical and basolateral sides respectively. At the end of the incubation period, samples (75 μL) were taken from both sides. The donor samples (25 μL) were firstly diluted with transport buffer (50 μL) and then all samples were quenched in acetonitrile (125 μL) containing internal analytical standards. After centrifugation (20 min, 3220 g, 4° C.) the supernatants were analysed by LC-MS/MS. The apparent permeability coefficient (Papp) and efflux ratio (ER) were calculated using the equations below; where dCr/dt is the compound concentration in the receiver chamber as a function of time (μM/s); Vr is the solution volume in the receiver chamber; A is the surface area of the cell monolayer; C0 is the initial concentration in the donor compartment; and Papp A-B and Papp B-A refer to the apparent permeabilities in the respective directions. Compound permeability is classified as low, moderate, or high according to Papp value binning classifications: <1, 1 to 6 or >6×10^−6 cm/s, respectively. The ER is employed to classify compounds as unlikely, possible, or likely P-gp substrates when ER was: <1.5, 1.5 to <2 or >2, respectively.

Data set [2] addresses T2, human Ox2R (Homo sapiens, UniProt O43614).
T2 construct: The gene encoding hOx2R was subcloned into the expression plasmid pcDNA5/FRT/TO; expressed in transfected cells; host or cells: CHO Flp-In cells (pcDNA5/FRT/TO with pOG44 Flp recombinase vector, hygromycin B selection)
T2 sequence (O43614 1-444): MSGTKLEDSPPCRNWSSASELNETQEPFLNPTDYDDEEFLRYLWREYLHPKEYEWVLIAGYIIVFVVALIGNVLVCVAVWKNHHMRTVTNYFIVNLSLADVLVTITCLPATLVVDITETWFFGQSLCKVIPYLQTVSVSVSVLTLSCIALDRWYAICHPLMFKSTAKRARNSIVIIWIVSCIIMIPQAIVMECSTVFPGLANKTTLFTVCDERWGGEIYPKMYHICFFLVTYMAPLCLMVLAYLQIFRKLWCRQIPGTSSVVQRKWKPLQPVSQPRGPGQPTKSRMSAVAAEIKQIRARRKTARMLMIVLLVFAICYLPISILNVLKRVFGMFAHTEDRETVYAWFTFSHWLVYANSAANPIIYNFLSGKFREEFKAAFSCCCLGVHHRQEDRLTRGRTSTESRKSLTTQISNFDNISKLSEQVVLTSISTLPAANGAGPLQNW
The data set is described as follows: Measurement of OX2R agonist activity (cell-based calcium release assay). Conditions: hOx2R-CHO Flp-In cells, n≥2 tests; for EC50: intracellular calcium, read-out: EC50; for Emax: normalized to assay buffer (0%) and 10 μM Danavorexton (100%), read-out: Emax (%). The gist of the method: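 CHO Flp-In cells stably expressing human Ox2R, dye-loaded 1 h at 37 °C in HBSS/20 mM HEPES pH 7.4 with 2.5 mM probenecid and 10 mM CaCl2, then stimulated with compound.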
In general terms: Calcium assays in cells follow changes in intracellular calcium, usually with a dye or a luminescent sensor.

The record followed here is US12590106B2, “Spiromacrocyclic orexin 2 receptor agonists” (H. Lundbeck A/S, priority 2023, dated 2026).

One may read the Papp A→B as the apparent permeability from the apical to the basolateral side of a cell layer. For orientation: EC50 means the concentration giving half of the maximal effect. The term Emax denotes the size of the effect at its maximum, as opposed to the concentration needed.

T1 sequence (P08183 whole entry): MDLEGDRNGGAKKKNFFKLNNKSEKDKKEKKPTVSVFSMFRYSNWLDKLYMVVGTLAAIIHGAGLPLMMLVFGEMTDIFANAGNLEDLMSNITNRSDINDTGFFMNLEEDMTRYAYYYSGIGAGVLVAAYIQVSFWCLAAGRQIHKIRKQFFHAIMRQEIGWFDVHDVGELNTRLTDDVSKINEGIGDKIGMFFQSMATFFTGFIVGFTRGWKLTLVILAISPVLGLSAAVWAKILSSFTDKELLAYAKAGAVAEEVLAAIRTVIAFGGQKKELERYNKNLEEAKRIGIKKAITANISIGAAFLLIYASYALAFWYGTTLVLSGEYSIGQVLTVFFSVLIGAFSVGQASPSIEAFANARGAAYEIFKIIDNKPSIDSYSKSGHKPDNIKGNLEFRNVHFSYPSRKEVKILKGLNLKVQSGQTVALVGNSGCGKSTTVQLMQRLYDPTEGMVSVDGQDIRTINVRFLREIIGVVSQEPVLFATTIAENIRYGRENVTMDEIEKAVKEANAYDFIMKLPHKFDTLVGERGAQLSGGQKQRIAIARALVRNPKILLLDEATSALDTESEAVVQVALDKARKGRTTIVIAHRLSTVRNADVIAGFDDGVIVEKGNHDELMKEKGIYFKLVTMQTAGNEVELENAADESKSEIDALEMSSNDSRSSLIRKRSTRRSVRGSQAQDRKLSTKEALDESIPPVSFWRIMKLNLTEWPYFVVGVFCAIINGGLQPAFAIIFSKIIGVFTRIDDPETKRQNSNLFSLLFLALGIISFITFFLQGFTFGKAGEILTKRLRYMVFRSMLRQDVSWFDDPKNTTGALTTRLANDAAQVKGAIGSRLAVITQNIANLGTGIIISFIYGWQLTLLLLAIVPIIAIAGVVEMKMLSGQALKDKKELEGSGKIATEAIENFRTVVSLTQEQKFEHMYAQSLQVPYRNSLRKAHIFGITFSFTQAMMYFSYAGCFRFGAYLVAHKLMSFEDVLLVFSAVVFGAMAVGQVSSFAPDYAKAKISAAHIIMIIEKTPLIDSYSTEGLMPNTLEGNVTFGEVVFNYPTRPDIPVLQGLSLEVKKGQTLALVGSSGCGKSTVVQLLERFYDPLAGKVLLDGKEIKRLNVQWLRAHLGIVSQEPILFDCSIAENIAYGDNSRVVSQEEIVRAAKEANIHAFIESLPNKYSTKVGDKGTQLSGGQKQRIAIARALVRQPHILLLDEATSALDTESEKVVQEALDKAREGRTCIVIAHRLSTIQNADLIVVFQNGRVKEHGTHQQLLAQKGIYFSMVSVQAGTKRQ

Turning to `Cc1oc2nc1COc1c(F)cccc1-c1cc(ccc1F)C[C@@]21CC[C@H](NS(C)(=O)=O)C1` [Example 25, N-[(1′S,14R)-6,19-difluoro-11-methyl-spiro[8,12-dioxa-21-azatetracyclo[14.3.1.110,13.02,7]henicosa-1(19),2,4,6,10,13(21),16(20),17-octaene-14,3′-cyclopentane]-1′-yl]methanesulfonamide], in data set [1], the efflux ratio at 0.5 μM amounted to 2 and the Papp A→B at 0.5 μM came to 82 nm/s. Further, in data set [2], the EC50 worked out at 0.066 nM and the Emax came to 97%.

As to `CS(=O)(=O)N[C@@H]1C[C@]2(Cc3ccc(F)c(c3)-c3cccc(F)c3OCc3coc2n3)[C@H]2C[C@@H]12` [Example 117, N-[(1′R,2′R,5′S,14R)-6,19-difluorospiro[8,12-dioxa-21-azatetracyclo[14.3.1.110,13.02,7]henicosa-1(20),2,4,6,10,13(21),16,18-octaene-14,4′-bicyclo[3.1.0]hexane]-2′-yl]methanesulfonamide], in data set [1], the efflux ratio at 0.5 μM stood at 1.9 and the Papp A→B at 0.5 μM was determined as 93.1 nm/s. In data set [2], the EC50 was 0.048 nM and the Emax was 100%.
